Patent US4800199A, “3-[2-thiazoloamino]-8-oxo-7-substituted-5-thia-1-a zabicyclo-[4.2.0]oct-2-ene-2-carboxylic acid and salts thereof and diphenylmethyl esters thereof” (American Cyanamid Company, priority 1986, dated 1989)
Values after ≈ are worked out from the molar mass of the structure shown.

What was measured:
Test in all cases: In vitro antibacterial activity, Mueller-Hinton agar dilution
Assay type in all cases: cell-based
[1] = tested on: Pseudonmonas aeruginosa CMC 83-19; conditions: read-out: Minimal Inhibitory Concentration
Source text: (§1) The results of this test on representative compounds of this invention appear in Table I.

[2] = tested on: Staphylococcus aureus SSC 82-20; conditions: SSC8220, read-out: Minimal Inhibitory Concentration
Source text: as §1

Escherichia coli 311 = conditions: read-out: Minimal Inhibitory Concentration
Source text: as §1

[3] = tested on: Staphylococcus aureus SSC 82-26; conditions: SSC8226, read-out: Minimal Inhibitory Concentration
Source text: as §1

[4] = tested on: Bacillus subtilis ATCC 6633; conditions: ATCC6633, read-out: Minimal Inhibitory Concentration
Source text: as §1

[5] = tested on: Micrococcus lutea PC 1001; conditions: PC1001, read-out: Minimal Inhibitory Concentration
Source text: as §1

[6] = tested on: Escherichia coli ATCC 25922; conditions: ATCC25922, read-out: Minimal Inhibitory Concentration
Source text: as §1

[7] = tested on: Klebsiella oxytoca IO 83-1; conditions: IO831, read-out: Minimal Inhibitory Concentration
Source text: as §1

Enterococcus CMC 83-53 = conditions: CMC8353, read-out: Minimal Inhibitory Concentration
Source text: as §1

[8] = tested on: Streptococcus faecalis ATCC 29212; conditions: Enterococcus faecalis, ATCC29212, read-out: Minimal Inhibitory Concentration
Source text: as §1

[9] = tested on: Morganella morganii IO 83-18; conditions: IO8318, read-out: Minimal Inhibitory Concentration
Source text: as §1

Acinetobacter CMC 83-89 = conditions: CMC8389, read-out: Minimal Inhibitory Concentration
Source text: as §1

[10] = tested on: Pseudomonas aeruginosa 12-4-4; conditions: 1244, read-out: Minimal Inhibitory Concentration
Source text: as §1

[11] = tested on: Enterobacter aerogenes IO 83-44; conditions: Klebsiella aerogenes, IO8344, read-out: Minimal Inhibitory Concentration
Source text: as §1

[12] = tested on: Providencia stuartii CMC 83-82; conditions: CMC8382, read-out: Minimal Inhibitory Concentration
Source text: as §1

[13] = tested on: Staphylococcus aureus ATCC 25923; conditions: ATCC25923, read-out: Minimal Inhibitory Concentration
Source text: as §1

[14] = tested on: Staphylococcus epidermidis CMC 83-133; conditions: CMC83133, read-out: Minimal Inhibitory Concentration
Source text: as §1

[15] = tested on: Citrobacter freundii IO 83-13; conditions: IO8313, read-out: Minimal Inhibitory Concentration
Source text: as §1

[16] = tested on: Escherichia coli CMC 84-11; conditions: CMC8411, read-out: Minimal Inhibitory Concentration
Source text: as §1

[17] = tested on: Pseudomonas aeruginosa ATCC 27853; conditions: ATCC27853, read-out: Minimal Inhibitory Concentration
Source text: as §1

Klebsiella pneumoniae AD = conditions: read-out: Minimal Inhibitory Concentration
Source text: as §1

[18] = tested on: Staphylococcus aureus SSC 82-57; conditions: SSC8257, read-out: Minimal Inhibitory Concentration
Source text: as §1

[19] = tested on: Enterobacter cloacae CMC 84-4; conditions: CMC844, read-out: Minimal Inhibitory Concentration
Source text: as §1

[20] = tested on: Serratia marcescens CMC 83-27; conditions: CMC8327, read-out: Minimal Inhibitory Concentration
Source text: as §1

[21] = tested on: Klebsiella pneumoniae CMC 84-5; conditions: CMC845, read-out: Minimal Inhibitory Concentration
Source text: as §1

[22] = tested on: Staphylococcus aureus SSC 82-31; conditions: SSC8231, read-out: Minimal Inhibitory Concentration
Source text: as §1

[23] = tested on: Citrobacter diversis K83-24; conditions: K8324, read-out: Minimal Inhibitory Concentration
Source text: as §1

Acinetobacter IO 83-49 = conditions: IO8349, read-out: Minimal Inhibitory Concentration
Source text: as §1

[24] = tested on: Staphylococcus aureus SSC 82-24; conditions: SSC8224, read-out: Minimal Inhibitory Concentration
Source text: as §1

Serratia marcescens F-35 = conditions: F35, read-out: Minimal Inhibitory Concentration
Source text: as §1

[25] = tested on: Staphylococcus epidermidis ATCC 12228; conditions: ATCC12228, read-out: Minimal Inhibitory Concentration
Source text: as §1

[26] = tested on: Proteus rettgheri IO 83-21; conditions: read-out: Minimal Inhibitory Concentration
Source text: as §1

Row | Structure (SMILES) | MIC [1] [µg/mL] | MIC [2] [µg/mL] | MIC (Escherichia coli 311) [µg/mL] | MIC [3] [µg/mL] | MIC [4] [µg/mL] | MIC [5] [µg/mL] | MIC [6] [µg/mL] | MIC [7] [µg/mL] | MIC (Enterococcus CMC 83-53) [µg/mL] | MIC [8] [µg/mL] | MIC [9] [µg/mL] | MIC (Acinetobacter CMC 83-89) [µg/mL] | MIC [10] [µg/mL] | MIC [11] [µg/mL] | MIC [12] [µg/mL] | MIC [13] [µg/mL] | MIC [14] [µg/mL] | MIC [15] [µg/mL] | MIC [16] [µg/mL] | MIC [17] [µg/mL] | also measured
1 | CC(=O)OCC1=C(C(=O)O)N2C(=O)[C@@H](Nc3nc(C(=O)O)cs3)[C@H]2SC1 [Example 7, (6R-trans)-3-[(Acetyloxy)methyl]-7-[(4-carboxy-2-thiazolyl)amino]-8-oxo-5-thia-1-azabicyclo[4.2.0]oct-2-ene-2-carboxylic acid] | > 128 | 16 (≈ 40.1 µM) | > 128 | 8 (≈ 20 µM) | 8 (≈ 20 µM) | 16 (≈ 40.1 µM) | > 128 | > 128 | > 128 | > 128 | > 128 | > 128 | > 128 | > 128 | > 128 | 8 (≈ 20 µM) | 2 (≈ 5.01 µM) | > 128 | > 128 | > 128 | MIC (Klebsiella pneumoniae AD): > 128 µg/mL; MIC [18]: 128 µg/mL (≈ 320 µM); MIC [19]: > 128 µg/mL; MIC [20]: > 128 µg/mL; MIC [21]: > 128 µg/mL; MIC [22]: 8 µg/mL (≈ 20 µM); MIC [23]: > 128 µg/mL; MIC (Acinetobacter IO 83-49): > 128 µg/mL; MIC [24]: > 128 µg/mL; MIC (Serratia marcescens F-35): > 128 µg/mL; MIC [25]: 4 µg/mL (≈ 10 µM); MIC [26]: 128 µg/mL (≈ 320 µM)
2 | CC(=O)OCC1=C(C(=O)O)N2C(=O)[C@@H](Nc3nc(C(=O)OCC(Cl)(Cl)Cl)cs3)[C@H]2SC1 [Example 9, (6R-trans)-3-[(Acetyloxy)methyl]-8-oxo-7-[[4-[(2,2,2-trichloroethoxy)carbonyl]-2-thiazolyl]amino]-5-thia-1-azabicyclo[4.2.0]oct-2-ene-2-carboxylic acid] | > 128 | 0.25 (≈ 0.471 µM) | > 128 | 0.12 (≈ 0.226 µM) | 0.5 (≈ 0.942 µM) | 1 (≈ 1.88 µM) | > 128 | > 128 | 64 (≈ 121 µM) | 16 (≈ 30.1 µM) | > 128 | > 128 | > 128 | > 128 | > 128 | 0.12 (≈ 0.226 µM) | ≤ 0.06 | > 128 | > 128 | > 128 | MIC (Klebsiella pneumoniae AD): > 128 µg/mL; MIC [18]: 128 µg/mL (≈ 241 µM); MIC [19]: > 128 µg/mL; MIC [20]: > 128 µg/mL; MIC [21]: > 128 µg/mL; MIC [22]: ≤ 0.06 µg/mL; MIC [23]: > 128 µg/mL; MIC (Acinetobacter IO 83-49): > 128 µg/mL; MIC [24]: > 128 µg/mL; MIC (Serratia marcescens F-35): > 128 µg/mL; MIC [25]: ≤ 0.06 µg/mL; MIC [26]: 64 µg/mL (≈ 121 µM)
3 | CC(=O)OCC1=C(C(=O)O)N2C(=O)[C@@H](Nc3nc(C(=O)NCc4ccccc4)cs3)[C@H]2SC1 [Example 11, (6R-trans)-3-[(Acetyloxy)methyl]-8-oxo-7-[[4-[[(phenylmethyl)amino]carbonyl]-2-thiazolyl]amino]-5-thia-1-azabicyclo[4.2.0]oct-2-ene-2-carboxylic acid] | > 128 | 8 (≈ 16.4 µM) | > 128 | 4 (≈ 8.19 µM) | 8 (≈ 16.4 µM) | 8 (≈ 16.4 µM) | > 128 | > 128 | > 128 | > 128 | > 128 | > 128 | > 128 | > 128 | > 128 | 4 (≈ 8.19 µM) | 2 (≈ 4.09 µM) | > 128 | > 128 | > 128 | MIC (Klebsiella pneumoniae AD): > 128 µg/mL; MIC [18]: 128 µg/mL (≈ 262 µM); MIC [19]: > 128 µg/mL; MIC [20]: > 128 µg/mL; MIC [21]: > 128 µg/mL; MIC [22]: 4 µg/mL (≈ 8.19 µM); MIC [23]: > 128 µg/mL; MIC (Acinetobacter IO 83-49): > 128 µg/mL; MIC [24]: > 128 µg/mL; MIC (Serratia marcescens F-35): > 128 µg/mL; MIC [25]: 2 µg/mL (≈ 4.09 µM); MIC [26]: > 128 µg/mL
4 | CC(=O)OCC1=C(C(=O)O)N2C(=O)[C@@H](Nc3nc(C)cs3)[C@H]2SC1 [Example 12, (6R-trans)-3-[(Acetyloxy)methyl]-7-[(4-methyl-2-thiazolyl)amino]-8-oxo-5-thia-1-azabicyclo[4.2.0]oct-2-ene-2-carboxylic acid] | > 128 | 4 (≈ 10.8 µM) | 64 (≈ 173 µM) | 4 (≈ 10.8 µM) | 1 (≈ 2.71 µM) | 4 (≈ 10.8 µM) | > 128 | > 128 | 128 (≈ 346 µM) | 128 (≈ 346 µM) | > 128 | > 128 | > 128 | > 128 | > 128 | 4 (≈ 10.8 µM) | 2 (≈ 5.41 µM) | > 128 | > 128 | > 128 | MIC (Klebsiella pneumoniae AD): 64 µg/mL (≈ 173 µM); MIC [18]: 128 µg/mL (≈ 346 µM); MIC [19]: > 128 µg/mL; MIC [20]: > 128 µg/mL; MIC [21]: 128 µg/mL (≈ 346 µM); MIC [22]: 4 µg/mL (≈ 10.8 µM); MIC [23]: > 128 µg/mL; MIC (Acinetobacter IO 83-49): > 128 µg/mL; MIC [24]: 64 µg/mL (≈ 173 µM); MIC (Serratia marcescens F-35): > 128 µg/mL; MIC [25]: 2 µg/mL (≈ 5.41 µM); MIC [26]: > 128 µg/mL
